Test results from patent US20080268533A1, “Methods and Compositions Utilizing Myc and Gsk3Beta to Manipulate the Pluripotency of Embryonic Stem Cells” (University of Georgia Research Foundation, Inc., priority 2004, published 2008).

Legend:
[1] = system: myc^T58AER cells; settings: 4OHT (−LIF) versus LIF maintained cells, 14-day period
Description: For long-term maintenance, mycER and myc^T58AER mouse ES cells were grown in ES complete media supplemented with 4-hydroxytomoxifen (4OHT) (100 nM or 2-10 nM, respectively) and re-fed every second day. For differentiation of ES cells as embryoid bodies (EB), cells were trypsinized and replated on bacteriological dishes at 1.6×10^5 cells/cm^2 and grown in ESC media (−LIF) plus or minus 4OHT to allow for EB formation. Cells were re-fed every second day and expanded after 4 days of culture. mycER cells were passaged by limited trypsinization, avoiding generation of single cell suspensions. AP activity was assayed with Alkaline Phosphatase Substrate Kit I (Vector Laboratories) according to the manufacturers' instructions. LIF titration assays were performed over a range of 0 to 1×10^3 units ESGRO per ml in the presence or absence of 4OHT by plating cells in 24 well plates.

[2] = system: vector alone cell lines; test: Self-renewal of vector alone ES cell lines with 4OHT; format: cell-based, mouse; settings: absence of LIF
Source text: Furthermore, authentic c-myc could maintain self-renewal in a similar manner to mycER fusions when expressed constitutively, independently of 4OHT (data not shown).

[3] = system: mycER ES cells; test: AP activity of mycER ES cells with 4OHT; format: cell-based, mouse
Description: In the presence of 4OHT (mycER on), ES cells retained a uniform dome-shaped colony morphology (FIG. 1B), similar to that of LIF maintained cells (data not shown). In contrast, withdrawal of 4OHT promoted a distinct flattening of colonies with a less uniform appearance (FIG. 1C) that correlated with ES cells undergoing differentiation in the absence of LIF (data not shown). The ability of c-myc to promote ES cell self-renewal was confirmed in a LIF titration assay where mycER ES cells were grown in the presence or absence of 4OHT for 6 days in media containing LIF over a range of 0-1×10^3 units per ml and then assayed for AP activity. […] MycER cells were then grown in the presence or absence of 4OHT in the absence of LIF for up to 15 days and assayed for AP activity. […] Including low levels of LIF (7.5 units/ml), that by itself had only a small effect on maintaining AP levels over 15 days, appeared to further delay the loss of AP activity in mycER cells grown with 4OHT.

[4] = system: myc^Δ40-178ER cells; test: AP activity of dominant negative myc^Δ40-178ER cells with 4OHT; format: cell-based, mouse; settings: +LIF, 4OHT (25 nM), 6-day period, 92% at start
Source text: While ES cell colonies with a typical domed-shape morphology could be maintained in the presence of LIF and in the absence of 4OHT over extended periods (>30 days), upon addition of 4OHT myc^Δ40-178ER cells changed morphology within several days, similar to that seen in spontaneously differentiating cells (data not shown). This coincided with down-regulation of specific transcripts associated with pluripotency such as Nanog and Oct4 together with the upregulation of early mesoderm (brachyury) and neuroectoderm (Sox1) transcripts (FIG. 10A). These trends were confirmed by AP activity assays in which the percentage of AP positive colonies declined from 92% to 45% over a 6-day period in the presence of 4OHT (FIG. 10B). […] This is consistent with the results showing that c-myc has a role in self-renewal and maintenance of pluripotency.

[5] = system: hES BG01 cell lines transfected with c-myc^T58AER; format: cell-based
Description: To address this question in hESCs, clonal hES BG01 cell lines transfected with a human c-myc^T58AER gene fusion were generated, identical to that used in the previous mESC studies.
To establish a role for c-myc in HESC self-renewal, c-myc activity was enforced by the addition of 4OHT. This experiment was performed to determine whether c-myc could maintain normal HESC growth and morphology on Matrigel for a period of approximately 15 days (3 passages) in the absence of MEF-CM and bFGF, conditions where spontaneous differentiation would be anticipated. Uninduced (−40HT) cells overtly differentiated after approximately 5-6 days in a manner closely resembling untransfected hESCs when grown in the absence of MEF-CM and bFGF on Matrigel, as judged by changes in cell/colony morphology, increased cell spreading, and a reduction in cell packing density (FIGS. 11B and C and data not shown). The cell lines were also analyzed by immunoblot analysis, evaluating levels of c-myc^T58AER, c-myc, and cdk2 (FIG. 11A).
Alkaline phosphatase (AP) activity was used as a read-out to assess whether c-myc maintained hESCs were still pluripotent. 67% of colonies grown with 4OHT were AP positive in contrast to −4OHT cells where only 4% were positive after a 15 day period (FIG. 11D and data not shown). As in mouse ES cells, elevated c-myc activity caused significant cell death (data not shown).

For `CC/C(=C(\c1ccc(O)cc1)c1ccc(OCCN(C)C)cc1)c1ccccc1` [4OHT, 4-hydroxytomoxifen], the AP activity [1] was “comparable between LIF maintained cells and those grown in the presence of 4OHT”, the self-renewal [2] was “did not promote self-renewal” and the “AP activity (positive)” value ([3]; mycER cells grown in 4OHT, 6 days, entire LIF titration range 0-1×10^3 units per ml) was > 90%. For the same compound, the AP activity ([3]; mycER cells, 14 days, −LIF, in the presence of 4OHT) was “significantly reduced”, the “percentage of AP positive colonies” value [4] was 45% and the “highest concentration of drug that did not promote c-myc-dependent cell death (optimal)” value ([5]; 4OHT titration, c-myc^T58AER BG01 cell line) was 1 to 5 nM. The “colonies AP positive” value ([5]; c-myc^T58AER hESCs grown with 4OHT, Matrigel, no MEF-CM and bFGF, 15 day period) was 67%.
